Data as given in patent US7560609B2, “Diabetic model” (priority 2001, dated 2009).

Experiment: Insulin sensitivity test
Assay type: in vivo, bank voles
Conditions: 60 minutes following insulin
Method: In the Group A bank voles (n=101), four female animals were found positive for glucosuria and blood glucose values of 215, 302, 313 and 340 mg/dl, respectively, In the remaining bank voles, the mean blood glucose±S.D. was normally distributed at 101±28 mg/dl. The body weight of the trapped voles from group A ranged from 8.5-28.4 g, the mean value±S.D. was 19±5 g. Occasional hyperglycemic and glucosuric bank voles may therefore be trapped in the wild. Whether these four animals had stress-induced hyperglycemia or overt diabetes remains to be established. […] As many as 18/22 (82%) had ketones and were polydipsic. […] We therefore next examined the pancreas histology in non-diabetic and diabetic bank voles to test if the classification of type 1 diabetes was supported by a loss of beta cells.

With “Actrapid: insulin (Actrapid, Novo Nordisk, Copenhagen, Denmark) used in the insulin sensitivity test” the “decrease in blood glucose” value (eight animals with blood glucose <120 mg/dl) was 40%, the “decrease in blood glucose” value (four animals with blood glucose at 120-200 mg/dl) was 60% and the “decrease in blood glucose” value (four animals with blood glucose levels above 200 mg/dl) was 30%.
